Source: patent US8575094B2, “Use of type-B lantibiotic-based compounds having antimicrobial activity” (Novacta Biosystems Limited, priority 2007, dated 2013)
Values after ≈ are worked out from the molar mass of the structure shown. Like-named read-outs stand apart in the source and are kept apart here.

Key:
Clostridium difficile = assay: microbe, parasite or virus in culture; type: cell-based; settings: Clostridioides difficile
Source text: Compounds I to VII were screened against twelve clinical isolates of Clostridium difficile.
In addition, compounds L to LIII were screened against […] isolates of Clostridium difficile.

C. difficile spores = assay: Sporicidal activity: viable counts of C. difficile spores exposed to antibiotics; type: cell-based
Source text: An agent capable of killing, or preventing the successful germination of C. difficile spores would therefore be of considerable interest. To determine the effects of type B lantibiotics on C. difficile spores, suspensions of spores were exposed to antibiotics ([…]) and aliquots were taken at appropriate time points. The spores in each aliquot were filtered off and plated out on to Brazier's agar.

[1] = tested on: C. difficile strain VPI 10463; type: in vivo; settings: hamster, three times daily at 50 mg/kg/day, 5-day dosing period
Experimental: The in vivo efficacy of two type B Lantibiotics in the treatment of C. difficile infections was evaluated in the standard animal model for CDAD: clindamycin-induced cecitis in hamster (FIG. 3). Four groups of six animals were dosed orally with approximately 10^7 cells of C. difficile strain VPI 10463 and 24 hours later with a subcutaneous dose of 10 mg/kg clindamycin phosphate.

E. coli = assay: microbe, parasite or virus in culture; settings: Escherichia coli
E. faecium = assay: microbe, parasite or virus in culture; settings: Enterococcus faecium
E. faecalis = assay: microbe, parasite or virus in culture; settings: Enterococcus faecalis
[2] = tested on: Bifidobacterium adolescentis NCTC 11814; assay: microbe, parasite or virus in culture; settings: NCTC11814, read-out: Minimal Inhibitory Concentration (MIC)
[3] = tested on: Bifidobacterium longum NCTC 11818; assay: microbe, parasite or virus in culture; settings: NCTC11818, read-out: Minimal Inhibitory Concentration (MIC)
[4] = tested on: Bacteroides fragilis NCTC 9343; assay: microbe, parasite or virus in culture; settings: NCTC9343, read-out: Minimal Inhibitory Concentration (MIC)
[5] = tested on: Bacteroides thetaiotaomicron NCTC 10582; assay: microbe, parasite or virus in culture; settings: NCTC10582, read-out: Minimal Inhibitory Concentration (MIC)
[6] = VRE, read-out: Minimal Inhibitory Concentration (MIC)

For CN[C@H](CC(C)C)C(=O)N[C@H]1C(=O)N[C@@H](CC(N)=O)C(=O)N[C@H]2C(=O)N[C@H]3C(=O)N[C@H](C(=O)N[C@H](C(=O)O)c4cc(O)cc(O)c4-c4cc3ccc4O)[C@H](O)c3ccc(c(Cl)c3)Oc3cc2cc(c3O[C@@H]2O[C@H](CO)[C@@H](O)[C@H](O)[C@H]2O[C@H]2C[C@](C)(N)[C@H](O)[C@H](C)O2)Oc2ccc(cc2Cl)[C@H]1O [Vancomycin], the MIC (Clostridium difficile; read-out: Minimal Inhibitory Concentration (MIC), C. difficile strain 027C) was 1 µg/mL (≈ 0.69 µM), the MIC (Clostridium difficile; read-out: Minimal Inhibitory Concentration (MIC), C. difficile strain 27SM) was 1 µg/mL (≈ 0.69 µM) and the MIC (Clostridium difficile; read-out: Minimal Inhibitory Concentration (MIC), C. difficile strain 19126) was 1 µg/mL (≈ 0.69 µM). The MIC (Clostridium difficile; read-out: Minimal Inhibitory Concentration (MIC), C. difficile strain 37779) was 2 µg/mL (≈ 1.38 µM), the MIC (Clostridium difficile; read-out: Minimal Inhibitory Concentration (MIC), C. difficile strain B32) was 1 µg/mL (≈ 0.69 µM) and the MIC (Clostridium difficile; read-out: Minimal Inhibitory Concentration (MIC), C. difficile strain E4) was 1 µg/mL (≈ 0.69 µM). It also gave an MIC (Clostridium difficile; read-out: Minimal Inhibitory Concentration (MIC), C. difficile strain E16) of 0.5 µg/mL (≈ 0.345 µM), an MIC (Clostridium difficile; read-out: Minimal Inhibitory Concentration (MIC), C. difficile strain E101) of 0.5 µg/mL (≈ 0.345 µM) and an MIC (Clostridium difficile; read-out: Minimal Inhibitory Concentration (MIC), C. difficile strain P24) of 0.5 µg/mL (≈ 0.345 µM). For the same compound, the MIC (Clostridium difficile; read-out: Minimal Inhibitory Concentration (MIC), C. difficile strain P49) was 1 µg/mL (≈ 0.69 µM), the MIC (Clostridium difficile; read-out: Minimal Inhibitory Concentration (MIC), C. difficile strain P59) was 1 µg/mL (≈ 0.69 µM) and the MIC (Clostridium difficile; read-out: Minimal Inhibitory Concentration (MIC), C. difficile strain P62) was 1 µg/mL (≈ 0.69 µM). For the same compound, the “Effect on C. difficile spore viability / germination” value (C. difficile spores; […]) was “no significant effect on spore viability”, the “Viable counts of C. difficile spores” value (C. difficile spores; antibiotic at 100 µg/ml, time 24 h) was 135 and the “Survival of infected animals” value [1] was “survived for the duration of the entire 5-day dosing period”. The MIC (E. coli; ATCC25922, read-out: Minimal Inhibitory Concentration (MIC)) was greater than 64 µg/mL, the MIC (E. coli; read-out: Minimal Inhibitory Concentration (MIC)) was greater than 64 µg/mL and the MIC (E. faecium; ATCC19579, read-out: Minimal Inhibitory Concentration (MIC)) was 0.5 µg/mL (≈ 0.345 µM). The MIC (E. faecium; [6]) was greater than 64 µg/mL, the MIC (E. faecalis; ATCC29212, read-out: Minimal Inhibitory Concentration (MIC)) was 4 µg/mL (≈ 2.76 µM) and the MIC (E. faecalis; [6]) was greater than 64 µg/mL. For the same compound, the MIC [2] was 1 µg/mL (≈ 0.69 µM), the MIC [3] was 1 to 2 µg/mL (≈ 0.69 to 1.38 µM) and the MIC [4] was 32 µg/mL (≈ 22.1 µM). It also gave an MIC [5] of 64 µg/mL (≈ 44.2 µM).
